The target in this test is HIF PHD2 (Homo sapiens, UniProt Q9GZT9). Nature of the test: PHD2 inhibition assay (TR-FRET, VCB-Eu detection of hydroxylated P564-HIF1α peptide). The test is classed as biochemical. The conditions noted are these: 2 nM PHD2, 100 nM P564-HIF1α peptide, 0.25 μM 2-oxoglutarate. As to the method: Inhibition of HIF PHD2 activity was quantified utilizing the TR-FRET technology. HIF PHD2 catalyzes a hydroxyl modification on the proline residue of the P564-HIF1α peptide substrate (Biotin-DLEMLAPYIPMDDDFQL (SEQ ID NO: 7)) resulting in recognition and binding of the europylated Von Hippel-Lindau protein (pVHL), elongin B and elongin C heterotrimeric (VCB-Eu) complex.
The PHD2 inhibition assay was executed by addition of freshly dissolved FeCl2 to 178.57 μM (100 μM final concentration) in PHD2 Reaction Buffer containing 30 mM MES, pH 6, 10 mM NaCl, 0.25% Brij-35, 0.01% BSA, and 1% DMSO. 28 μL of the iron solution and 2 μL of inhibitor compounds serially diluted in 100% DMSO (5% DMSO final) were added to black polypropylene 96-well microtiter plates. To that, 10 μL of 10 nM PHD2 (2 nM final) was added to all wells of the plate except for the 8 wells of column 12 (LO control), and allowed to incubate at room temperature on the shaker for one hour. Column 6 was the HI control containing PHD2 enzyme and 5% DMSO vehicle, but no inhibitor compound. To initiate the PHD2 enzymatic reaction, 10 μL of a solution containing 500 nM P564-HIF1α peptide (100 nM final), 10 mM ascorbic acid (2 mM final), and 1.25 μM 2-oxoglutarate (α-ketoglutarate; 0.25 μM final) in PHD2 Reaction Buffer was added to all wells of the plate and allowed to incubate on the shaker at room temperature for one hour.
The reaction was terminated by addition of 25 μL TR-FRET Buffer (50 mM TRIS-HCl, pH 9, 100 mM NaCl, 0.05% BSA, and 0.5% Tween-20) containing 150 mM succinate (product inhibitor; 50 mM final), 75 nM streptavidin-APC (25 nM final), and 7.5 nM VCB-Eu (2.5 nM final). The TR-FRET detection reagents were placed on a shaker for 1 hour to reach binding equilibrium before reading on the Discovery platform (PerkinElmer). Europium is excited at 315 nm and phosphoresces at 615 nm with a large Stoke's shift. APC, in turn, emits at 655 nm upon excitation at 615 nm. The TR-FRET signal is measured as the ratio of the APC 655 nm signal divided by the internal europium reference 615 nm emission signal.
The POC (percentage of control) was determined by comparing the signal from hydroxylated peptide substrate in the enzyme reaction containing inhibitor compound with that from PHD2 enzyme with DMSO vehicle alone (HI control), and no enzyme (LO control). POC was calculated using the formula: % control (POC)=(cpd−average LO)/(average HI−average LO)*100. Data (consisting of POC and inhibitor concentration in μM) was fitted to a 4-parameter equation (y=A+((B−A)/(1+((x/C)^D))), where A is the minimum y (POC) value, B is the maximum y (POC), C is the x (cpd concentration) at the point of inflection and D is the slope factor) using a Levenburg-Marquardt non-linear regression algorithm.

Chain of HIF PHD2 (Q9GZT9 whole entry): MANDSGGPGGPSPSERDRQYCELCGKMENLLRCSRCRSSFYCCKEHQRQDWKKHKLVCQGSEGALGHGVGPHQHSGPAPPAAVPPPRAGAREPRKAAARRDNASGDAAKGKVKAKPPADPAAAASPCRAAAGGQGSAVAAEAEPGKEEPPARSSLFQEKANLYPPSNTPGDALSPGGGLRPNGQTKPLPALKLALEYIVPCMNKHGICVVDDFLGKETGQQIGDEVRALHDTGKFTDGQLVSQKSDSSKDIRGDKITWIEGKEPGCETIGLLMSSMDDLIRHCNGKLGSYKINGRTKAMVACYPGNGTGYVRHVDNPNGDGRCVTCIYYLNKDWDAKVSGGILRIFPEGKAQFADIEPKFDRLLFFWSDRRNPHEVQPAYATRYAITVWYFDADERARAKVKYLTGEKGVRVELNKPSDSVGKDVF

The IC50 is the concentration needed to halve the response being measured. Lower therefore signals greater potency. In turn, `Cn1c(=O)c(C(=O)NCC(=O)O)c(O)c2cc(-c3ccccc3C(F)(F)F)cnc21` [Example 42, N-((4-Hydroxy-1-methyl-2-oxo-6-(2-(trifluoromethyl)phenyl)-1,2-dihydro-1,8-naphthrydin-3-yl)carbonyl)glycine] returned an IC50 of 50 to 100 nM.

Consider `Cn1c(=O)c(C(=O)NCC(=O)O)c(O)c2cc(-c3ccncc3)cnc21` [Example 43, 2-(4-Hydroxy-1-methyl-2-oxo-6-(pyridin-4-yl)-1,2-dihydro-1,8-naphthyridine-3-carboxamido)acetic acid], for which the IC50 was in the range of 100 to 500 nM.

For the compound `Cn1c(=O)c(C(=O)NCC(=O)O)c(O)c2cc(-c3cccnc3)cnc21` [Example 44, 2-(4-Hydroxy-1-methyl-2-oxo-6-(pyridin-3-yl)-1,2-dihydro-1,8-naphthyridine-3-carboxamido)acetic acid], the IC50 was under 50 nM.

On to `Cc1ncccc1-c1cnc2c(c1)c(O)c(C(=O)NCC(=O)O)c(=O)n2C` [Example 45, 2-(4-Hydroxy-1-methyl-6-(2-methylpyridin-3-yl)-2-oxo-1,8-naphthyridine-3-carboxamido)acetic acid], for which the IC50 is under 50 nM.

Compound `Cn1c(=O)c(C(=O)NCC(=O)O)c(O)c2cc(-c3ccccc3)cnc21` [Example 46, 2-(4-Hydroxy-1-methyl-2-oxo-6-phenyl-1,2-dihydro-1,8-naphthyridine-3-carboxamido)acetic acid] yielded an IC50 of 100 to 500 nM.

For `Cc1nc(F)ccc1-c1cnc2c(c1)c(O)c(C(=O)NCC(=O)O)c(=O)n2C` [Example 47, 2-(6-(6-Fluoro-2-methylpyridin-3-yl)-4-hydroxy-1-methyl-2-oxo-1,2-dihydro-1,8-naphthyridine-3-carboxamido)acetic acid], the IC50 was under 50 nM.

The compound `Cc1ccc(-c2cnc3c(c2)c(O)c(C(=O)NCC(=O)O)c(=O)n3C)c(F)n1` [Example 48, N-((6-(2-Fluoro-6-methyl-3-pyridinyl)-4-hydroxy-1-methyl-2-oxo-1,2-dihydro-1,8-naphthyridin-3-yl)carbonyl)glycine] yielded an IC50 of under 50 nM.

On to `CN(C)c1ccc(-c2cnc3c(c2)c(O)c(C(=O)NCC(=O)O)c(=O)n3C)cc1` [Example 49, N-((6-(4-(Dimethylamino)phenyl)-4-hydroxy-1-methyl-2-oxo-1,2-dihydro-1,8-naphthyridin-3-yl)carbonyl)glycine], for which the IC50 lay within 100 to 500 nM.

Turning to `CN(C)c1cccc(-c2cnc3c(c2)c(O)c(C(=O)NCC(=O)O)c(=O)n3C)c1` [Example 50, N-((6-(3-(Dimethylamino)phenyl)-4-hydroxy-1-methyl-2-oxo-1,2-dihydro-1,8-naphthyridin-3-yl)carbonyl)glycine], the IC50 is under 50 nM.

Take `Cn1c(=O)c(C(=O)NCC(=O)O)c(O)c2cc(-c3ccc(F)nc3)cnc21` [Example 51, N-((6-(6-Fluoro-3-pyridinyl)-4-hydroxy-1-methyl-2-oxo-1,2-dihydro-1,8-naphthyridin-3-yl)carbonyl)glycine]: the IC50 is under 50 nM.

Take `COc1ccc(-c2cnc3c(c2)c(O)c(C(=O)NCC(=O)O)c(=O)n3C)cn1` [Example 52, N-((4-Hydroxy-1-methyl-6-(6-(methyloxy)-3-pyridinyl)-2-oxo-1,2-dihydro-1,8-naphthyridin-3-yl)carbonyl)glycine]: the IC50 lay in the range of 100 to 500 nM.

Regarding `COc1ncccc1-c1cnc2c(c1)c(O)c(C(=O)NCC(=O)O)c(=O)n2C` [Example 53, N-((4-Hydroxy-1-methyl-6-(2-(methyloxy)-3-pyridinyl)-2-oxo-1,2-dihydro-1,8-naphthyridin-3-yl)carbonyl)glycine], the IC50 was under 50 nM.

For `Cn1c(=O)c(C(=O)NCC(=O)O)c(O)c2cc(-c3cccc(N4CCOCC4)c3)cnc21` [Example 54], the IC50 is 50 to 100 nM.

Regarding `COc1cncc(-c2cnc3c(c2)c(O)c(C(=O)NCC(=O)O)c(=O)n3C)c1` [Example 55, N-((4-Hydroxy-1-methyl-6-(5-(methyloxy)-3-pyridinyl)-2-oxo-1,2-dihydro-1,8-naphthyridin-3-yl)carbonyl)glycine], the IC50 was in the range of 50 to 100 nM.

For the compound `CN1CCOc2cc(-c3cnc4c(c3)c(O)c(C(=O)NCC(=O)O)c(=O)n4C)ccc21` [Example 56, N-((4-Hydroxy-1-methyl-6-(4-methyl-3,4-dihydro-2H-1,4-benzoxazin-7-yl)-2-oxo-1,2-dihydro-1,8-naphthyridin-3-yl)carbonyl)glycine], the IC50 fell in the range of 50 to 100 nM.

The compound `Cn1c(=O)c(C(=O)NCC(=O)O)c(O)c2cc(-c3ccccc3N3CCOCC3)cnc21` [Example 57, N-((4-Hydroxy-1-methyl-6-(2-(4-morpholinyl)phenyl)-2-oxo-1,2-dihydro-1,8-naphthyridin-3-yl)carbonyl)glycine] gave an IC50 of under 50 nM.

Compound `Cn1c(=O)c(C(=O)NCC(=O)O)c(O)c2cc(-c3ccccc3N3CCCCC3)cnc21` [Example 58, N-((4-Hydroxy-1-methyl-2-oxo-6-(2-(1-piperidinyl)phenyl)-1,2-dihydro-1,8-naphthyridin-3-yl)carbonyl)glycine] gave an IC50 of 50 to 100 nM.

In turn, `Cn1c(=O)c(C(=O)NCC(=O)O)c(O)c2cc(-c3cccc(N4CCCCC4)c3)cnc21` [Example 59, N-((4-Hydroxy-1-methyl-2-oxo-6-(3-(1-piperidinyl)phenyl)-1,2-dihydro-1,8-naphthyridin-3-yl)carbonyl)glycine] had an IC50 of 50 to 100 nM.

In turn, `Cn1c(=O)c(C(=O)NCC(=O)O)c(O)c2cc(-c3cccc(N4CCCC4)c3)cnc21` [Example 60, N-((4-Hydroxy-1-methyl-2-oxo-6-(3-(1-pyrrolidinyl)phenyl)-1,2-dihydro-1,8-naphthyridin-3-yl)carbonyl)glycine] displayed an IC50 of 100 to 500 nM.

Take `Cn1c(=O)c(C(=O)NCC(=O)O)c(O)c2cc(-c3cncnc3)cnc21` [Example 61, N-((4-Hydroxy-1-methyl-2-oxo-6-(5-pyrimidinyl)-1,2-dihydro-1,8-naphthyridin-3-yl)carbonyl)glycine]: the IC50 is under 50 nM.

`CN(C)c1ccc(-c2cnc3c(c2)c(O)c(C(=O)NCC(=O)O)c(=O)n3C)cn1` [Example 62, N-((6-(6-(Dimethylamino)-3-pyridinyl)-4-hydroxy-1-methyl-2-oxo-1,2-dihydro-1,8-naphthyridin-3-yl)carbonyl)glycine]: the IC50 was under 50 nM.

`Cn1c(=O)c(C(=O)NCC(=O)O)c(O)c2cc(-c3ccc(N4CCOCC4)cc3)cnc21` [Example 63, N-((4-Hydroxy-1-methyl-6-(4-(4-morpholinyl)phenyl)-2-oxo-1,2-dihydro-1,8-naphthyridin-3-yl)carbonyl)glycine] came in with an IC50 of under 50 nM.

Compound `COc1ncc(-c2cnc3c(c2)c(O)c(C(=O)NCC(=O)O)c(=O)n3C)cn1` [Example 64, 2-(4-Hydroxy-6-(2-methoxypyrimidin-5-yl)-1-methyl-2-oxo-1,2-dihydro-1,8-naphthyridine-3-carboxamido)acetic acid] gave an IC50 of 50 to 100 nM.

Take `Cn1c(=O)c(C(=O)NCC(=O)O)c(O)c2cc(-c3ccnc(F)c3)cnc21` [Example 65, 2-(6-(2-Fluoropyridin-4-yl)-4-hydroxy-1-methyl-2-oxo-1,2-dihydro-1,8-naphthyridine-3-carboxamido)acetic acid]: the IC50 was under 50 nM.

As for `Cn1c(=O)c(C(=O)NCC(=O)O)c(O)c2cc(C3CCCCC3)cnc21` [Example 66, 2-(6-Cyclohexyl-4-hydroxy-1-methyl-2-oxo-1,2-dihydro-1,8-naphthyridine-3-carboxamido)acetic acid], the IC50 is under 50 nM.

With `Cn1c(=O)c(C(=O)NCC(=O)O)c(O)c2cc(C3=CCCCC3)cnc21` [Example 67, 2-(6-Cyclohexenyl-4-hydroxy-1-methyl-2-oxo-1,2-dihydro-1,8-naphthyridine-3-carboxamido)acetic acid], the IC50 is under 50 nM.

Compound `Cn1c(=O)c(C(=O)NCC(=O)O)c(O)c2cc(C3CCCO3)cnc21` (stereo not drawn) [Example 71, 2-(4-Hydroxy-1-methyl-2-oxo-6-(tetrahydrofuran-2-yl)-1,2-dihydro-1,8-naphthyridine-3-carboxamido)acetic acid] showed an IC50 of 50 to 100 nM.

Values taken from patent US8048892B2, “Azaquinolone based compounds exhibiting prolyl hydroxylase inhibitory activity, compositions, and uses thereof” (Amgen Inc., priority 2006, dated 2011).
